“And” between values parts separate entries of the source, which are not always exact repeats. Equal values may be shown once. Read-outs that look alike come from different tables or passages of the source.
Assays:
[1] = Pharmacokinetic study of GT in DcNPs compared to CrEL (Example 2), plasma G, T and dFdU; assay type: in vivo, BALB/c mice; conditions: for MRT / concentration at 3 h / AUC(0-inf) / C0 / half-life / Vd: female, BALB/c, mouse, plasma; for MRT: read-out: MRT (mean residence time); for concentration at 3 h: intravenous; for C0: read-out: C0 (concentration at time 0, back extrapolated); for half-life: read-out: T1/2,app (converted); for Vd: read-out: Vss
Text: Drugs extracted from biological matrices such as plasma or tissue homogenates were quantified by a Shimadzu HPLC system coupled to a 3200 QTRAP mass spectrometer (Applied Biosystems, Grand Island, N.Y.). The HPLC system consisted of two Shimadzu LC-20A pumps, a DGU-20A5 degasser, and a Shimadzu SIL-20AC HT autosampler. The mass spectrometer was equipped with an electrospray ionization (ESI) TurbolonSpray source. The system was operated with Analyst software, version 1.5.2 (ABSciex, Framingham, Mass.). Chromatographic separation of G and T was achieved using a Synergi column (100×2.0 mm; 4-μm particle size) (Phenomenex, Torrance, Calif.) with an inline C8 guard column (4.0×2.0 mm) also from Phenomenex. The flow rate was set to 0.5 mL/min with a 5 μl sample injection volume. The mobile phase for separation consisted of pump A (20 mM Ammonium Acetate in water) and B (Reagent Alcohol). […] The needle was washed with isopropanol after each injection. Analytes were monitored using multiple-reaction monitoring (MRM) for positive ions.
Statistical comparisons were performed using 2-sided t-tests with Welch's correction for unequal variances. Significance probability α was set at 0.05. Pharmacokinetic parameters from non-compartmental analysis were calculated using the trapezoidal rule and relevant pharmacokinetic equations shown in Table 3.

[2] = Drug association efficiency (AE %) of GT DcNPs by dialysis under sink conditions; assay type: physicochemical; conditions: in vitro dialysis under sink conditions, 4 h, batches 1-5 and average
Description: Ethanol was removed by controlled solvent evaporation at 60° C., followed by vacuum desiccation to remove residual solvent. The dry film was rehydrated to 100 mM lipids in 0.45% NaCl with 20 mM NaHCO3 buffer at 60° C. for 2 h. Particle size was reduced at ˜40° C. using a bath sonicator (Avanti Polar Lipids, Inc. Alabaster, Ala.) (5 min on, […], 3 cycles). GT DcNP formulations were stored at room temperature for further use. Particle size was determined by a NICOMP 380 ZLS (Particle Sizing Systems, Santa Barbara, Calif.). Drug extraction with acetonitrile followed by HPLC were used to quantify drugs in formulations. Drug association was measured by dialysis (6-8 kDa) of DcNP against 0.9% NaCl 20 mM NaHCO3 buffer for 4 h and quantification by HPLC.
Drug association efficiency (AE %) was determined by dialyzing 100 μl of the DcNP suspension (6-8 k MWCO) against 1000×volume (100 mL, pH=7.4) of bicarbonate buffered saline for 4 hours at room temperature. Drugs were extracted by acetonitrile and drug concentrations in pre and post-dialysis DcNP suspensions were measured with a Shimadzu HPLC-UV system (Kyoto, Japan). Chromatographic separation was achieved using a Kinetex C18 column (100 Å, 5 μm, 4.6 mm×100 mm) (Phenomenex, Torrance, Calif.). The flow rate was set to 1.0 mL/min with a 10 μl sample injection volume. The mobile phase for separation consisted of pump A (Acetonitrile) and B (10 mM Ammonium Acetate in water). The gradient program used was as follows: pump B was set to 40%, and increased to 100% over 5 minutes. […] AE % was calculated as the […] concentrations of G or T.

[3] = plasma concentration above which G tri-phosphate levels no longer increase; patients with leukemia; cited from earlier work
[4] = iv, 50 mg/kg, Control (CrEL suspension), 50/5 mg/kg G/T IV, mice
[5] = iv, 50 mg/kg, GT DcNP, 50/5 mg/kg G/T IV, mice

Nc1ccn([C@@H]2O[C@H](CO)[C@@H](O)C2(F)F)c(=O)n1 [Gemcitabine, 4-amino-1-[(2R,4R,5R)-3,3-difluoro-4-hydroxy-5-(hydroxymethyl)oxolan-2-yl]pyrimidin-2-one]
AUC0 to ∞ Ratio (DcNP to control) ([1]; 50/5 mg/kg G/T IV, mice): 61.0
C0 Ratio (DcNP to control) ([1]; 50/5 mg/kg G/T IV, mice): 1.1
Dose/AUC Ratio (DcNP to control) ([1]; 50/5 mg/kg G/T IV, mice): 0.02
MRT Ratio (DcNP to control) ([1]; 50/5 mg/kg G/T IV, mice): 45.2
T1/2,app Ratio (DcNP to control) ([1]; 50/5 mg/kg G/T IV, mice): 8.6
Vss Ratio (DcNP to control) ([1]; 50/5 mg/kg G/T IV, mice): 0.7
plasma concentration at 3 hours, DcNP times greater than CrEL ([1]; 50/5 mg/kg G/T IV, mice): 470 times
AUC0 to ∞ Ratio (DcNP to control) ([1]; 50/5 mg/kg G/T IV, mice, listed as G): 61
AUC0 to ∞ Ratio (DcNP to control) ([1]; 50/5 mg/kg G/T IV, mice, listed as gemcitabine): 50
Dose/AUC (apparent clearance) ([1]; Control (CrEL suspension), 50/5 mg/kg G/T IV, mice): 65.2 mL/h
G to dFdU ratio in plasma at 6 hours ([1]; CrEL control dosage form): 0.01
difference in mean residence times of G and T after DcNP administration ([1]; GT DcNP): 11.3 fold
Dose/AUC (apparent clearance) ([1]; GT DcNP, 50/5 mg/kg G/T IV, mice): 1.1 mL/h
plasma concentration within 15 minutes ([1]; after GT in CrEL control dosage form IV, mice): 12023.5 ng/mL
mean plasma concentration at 3 hours ([1]; after control CrEL dosing, 50/5 mg/kg G/T IV, mice, listed as G): 87.3 ng/mL
MRT ([1]; 50 mg/kg, Control (CrEL suspension), 50/5 mg/kg G/T IV, mice): 0.25 h
concentration at 3 h ([1]; after GT DcNP dosing, 50/5 mg/kg G/T IV, mice): 41100 ng/mL
concentration at 3 h ([1]; after control CrEL dosing, 50/5 mg/kg G/T IV, mice): 87.3 ng/mL
AUC(0-inf) [1, 4]: 15.3 µg·h/mL
C0 [1, 4]: 165000 ng/mL
half-life [1, 4]: 1.6 h
Vd [1, 4]: 0.0166 L
AUC(0-inf) [1, 5]: 937 µg·h/mL
C0 [1, 5]: 181000 ng/mL
MRT [1, 5]: 11.3 h
half-life [1, 5]: 13.7 h
Vd [1, 5]: 0.0121 L
half-life ([1]; iv, GT DcNP, 50/5 mg/kg G/T IV, mice): 13.7 h
time over which concentrations in plasma were detected ([1]; mice administered GT DcNPs, 48-hour study): ≥ 48 h
plasma concentration by 24 hours ([1]; mice treated with the CrEL control formulation): fell below the detection limit
AE % (association efficiency of drug to DcNP) [2]: 9%
AE % (association efficiency of drug to DcNP) ([2]; listed as G): 9% and 9±1%
AE % (association efficiency of drug to DcNP) ([2]; listed as GEM): 10% and 8% and 7%
AE % (association efficiency of drug to DcNP) ([2]; listed as GEM, mean): 9%
target concentration in plasma [3]: 3 µg/mL
